These results are taken from patent publication US10100058B2, “Fused heterocyclic compounds as CaM kinase inhibitors” (Gilead Sciences, Inc., priority 2016, dated 2018).

The test has as its target recombinant CaMKIIδ (Homo sapiens (Human), UniProt Q13557). As to the kind of experiment: CaMKIIδ biochemical assay (HTRF). Conditions: 10 pM CaMKIIδ, 110 nM calmodulin, 12 μM ATP, 1 hour; read-out: CAMKIID-HTRF-384V2 (IC50 - nM). The procedure:
CaMKIIδ Biochemical Assay
The biochemical activity of recombinant CaMKIIδ was measured by monitoring the phosphorylation of a target peptide using Homogenous Time Resolved Fluorescence (HTRF) technology from CisBio Bioassays.
For orientation: In TR-FRET formats the signal depends on donor and acceptor labels being close together.

The IC50 is the point on the concentration scale where inhibition reaches its midpoint. Regarding `CCN(CC)[C@@H](C)CNC(=O)c1cc(N[C@H](C)C(=O)NC)nc(-c2cnn3ccc(-c4cccs4)nc23)c1` [Example 239, N—((S)-2-(diethylamino)propyl)-2-(((R)-1-(methylamino)-1-oxopropan-2-yl)amino)-6-(5-(thiophen-2-yl)pyrazolo[1,5-a]pyrimidin-3-yl)isonicotinamide], the IC50 came to 3.66 nM.
The figure for `CCN(CC)[C@@H](C)CNC(=O)c1cc(-c2cnn3ccc(-c4cccs4)nc23)nc(N2CC(F)(F)C2)c1` [Example 148, (S)—N-(2-(diethylamino)propyl)-2-(3,3-difluoroazetidin-1-yl)-6-(5-(thiophen-2-yl)pyrazolo[1,5-a]pyrimidin-3-yl)isonicotinamide] is 0.21 nM; for `CCN[C@@H](C)CNC(=O)c1cc(-c2cnn3ccc(-c4cccs4)nc23)nc(N2CC(C)(O)C2)c1` [Example 245, (S)—N-(2-(ethylamino)propyl)-2-(3-hydroxy-3-methylazetidin-1-yl)-6-(5-(thiophen-2-yl)pyrazolo[1,5-a]pyrimidin-3-yl)isonicotinamide] it is 9.25 nM.
For `CCN(CC)[C@@H](C)CNC(=O)c1cc(-c2cnn3ccc(-c4cccs4)nc23)nc(N2CCN(C(C)=O)CC2)c1` [Example 204, (S)-2-(4-acetylpiperazin-1-yl)-N-(2-(diethylamino)propyl)-6-(5-(thiophen-2-yl)pyrazolo[1,5-a]pyrimidin-3-yl)isonicotinamide], the IC50 amounted to 0.28 nM.
The figure for `CCN(CC)[C@@H](C)CNC(=O)c1cc(-c2cnn3ccc(-c4cccs4)nc23)nc(N2CC[C@H]2C(=O)NCCOC)c1` [Example 301, N—((S)-2-(diethylamino)propyl)-2-((S)-2-((2-methoxyethyl)carbamoyl)azetidin-1-yl)-6-(5-(thiophen-2-yl)pyrazolo[1,5-a]pyrimidin-3-yl)isonicotinamide] is 0.48 nM; for `CCN(CC)[C@@H](C)CNC(=O)c1cc(-c2cnn3ccc(-c4cccs4)nc23)nc(N2CCC2)c1` [Example 146, (S)-2-(azetidin-1-yl)-N-(2-(diethylamino)propyl)-6-(5-(thiophen-2-yl)pyrazolo[1,5-a]pyrimidin-3-yl)isonicotinamide] it is 0.19 nM; for `CCN(CC)[C@@H](C)CNC(=O)c1cc(-c2cnn3ccc(-c4cccs4)nc23)nc(N2CCNCC2)c1` [Example 207, (S)—N-(2-(diethylamino)propyl)-2-(piperazin-1-yl)-6-(5-(thiophen-2-yl)pyrazolo[1,5-a]pyrimidin-3-yl)isonicotinamide] it is 0.21 nM.
The value for `CCN(CC)[C@@H](C)CNC(=O)c1cc(-c2cnn3ccc(-c4cccs4)nc23)nc(N2CC(CO)(CO)C2)c1` [Example 244, (S)-2-(3,3-bis(hydroxymethyl)azetidin-1-yl)-N-(2-(diethylamino)propyl)-6-(5-(thiophen-2-yl)pyrazolo[1,5-a]pyrimidin-3-yl)isonicotinamide] was 0.16 nM.
Take `CCN[C@@H](C)CNC(=O)c1cc(-c2cnn3ccc(-c4ccccc4)nc23)nc(C(C)C)c1` [Example 122, (S)—N-(2-(ethylamino)propyl)-2-isopropyl-6-(5-phenylpyrazolo[1,5-a]pyrimidin-3-yl)isonicotinamide]: the IC50 came to 4.61 nM.
The value for `CC(C)(C)c1cc(C(=O)N2CCCC[C@@H]2CN)cc(-c2cnn3ccc(-c4ccccc4)nc23)n1` [Example 130, (R)-(2-(aminomethyl)piperidin-1-yl)(2-(tert-butyl)-6-(5-phenylpyrazolo[1,5-a]pyrimidin-3-yl)pyridin-4-yl)methanone] was 266 nM; that for `CCN(CC)[C@@H](C)CNC(=O)c1cc(NS(C)(=O)=O)nc(-c2cnn3ccc(-c4cccs4)nc23)c1` [Example 181, (S)—N-(2-(diethylamino)propyl)-2-(methylsulfonamido)-6-(5-(thiophen-2-yl)pyrazolo[1,5-a]pyrimidin-3-yl)isonicotinamide] was 0.64 nM; that for `O=C(c1ccnc(-c2cnn3ccc(-c4cccs4)nc23)c1)N1CC2CNC(COC2)C1` (stereo not drawn) [Example 81] was 7.33 nM.
For `CCN(CC)[C@@H](C)CNC(=O)c1cc(-c2cnn3ccc(-c4cccs4)nc23)nc(N2CC(C)(C)C2)c1` [Example 152, (S)—N-(2-(diethylamino)propyl)-2-(3,3-dimethylazetidin-1-yl)-6-(5-(thiophen-2-yl)pyrazolo[1,5-a]pyrimidin-3-yl)isonicotinamide], the IC50 was 0.59 nM.
For `CCC(=O)Nc1cc(C(=O)NC[C@H](C)N(CC)CC)cc(-c2cnn3ccc(-c4cccs4)nc23)n1` [Example 188, (S)—N-(2-(diethylamino)propyl)-2-propionamido-6-(5-(thiophen-2-yl)pyrazolo[1,5-a]pyrimidin-3-yl)isonicotinamide], the IC50 is 0.43 nM.
Consider `Cc1cnc(-c2cnn3ccc(-c4ccccc4)nc23)cc1C(=O)N1CCCC[C@@H]1[C@@H](C)N` [Example 140, ((R)-2-((R)-1-aminoethyl)piperidin-1-yl)(5-methyl-2-(5-phenylpyrazolo[1,5-a]pyrimidin-3-yl)pyridin-4-yl)methanone], for which the IC50 turned out to be 1.91 nM.
The value for `CCC[C@@]1(CNC(=O)c2ccnc(-c3cnn4ccc(-c5cccs5)nc34)c2)CCCN1` [Example 10, (S)—N-((2-propylpyrrolidin-2-yl)methyl)-2-(5-(thiophen-2-yl)pyrazolo[1,5-a]pyrimidin-3-yl)isonicotinamide] was 9.8 nM.
For the molecule `CCN(CC)[C@@H](C)CNC(=O)c1cc(-c2cnn3ccc(-c4cccs4)nc23)nc(N2CC[C@H]2C(=O)NC2CC2)c1` [Example 277, 2-((S)-2-(cyclopropylcarbamoyl)azetidin-1-yl)-N—((S)-2-(diethylamino)propyl)-6-(5-(thiophen-2-yl)pyrazolo[1,5-a]pyrimidin-3-yl)isonicotinamide], the IC50 worked out at 0.51 nM.
The value for `CCN(CC)[C@@H](C)CNC(=O)c1cc(-c2cnoc2)nc(-c2cnn3ccc(-c4cccs4)nc23)c1` [Example 335, (S)—N-(2-(diethylamino)propyl)-2-(isoxazol-4-yl)-6-(5-(thiophen-2-yl)pyrazolo[1,5-a]pyrimidin-3-yl)isonicotinamide] was 0.29 nM; that for `CCN(CC)[C@@H](C)CNC(=O)c1cc(NC2CC2)nc(-c2cnn3ccc(-c4cccs4)nc23)c1` [Example 213, (S)-2-(cyclopropylamino)-N-(2-(diethylamino)propyl)-6-(5-(thiophen-2-yl)pyrazolo[1,5-a]pyrimidin-3-yl)isonicotinamide] was 0.18 nM.
For `CCNC(=O)[C@@H]1CCN1c1cc(C(=O)NC[C@H](C)N(CC)CC)cc(-c2cnn3ccc(-c4cccs4)nc23)n1` [Example 276, N—((S)-2-(diethylamino)propyl)-2-((S)-2-(ethylcarbamoyl)azetidin-1-yl)-6-(5-(thiophen-2-yl)pyrazolo[1,5-a]pyrimidin-3-yl)isonicotinamide], the IC50 is 0.22 nM.
With `Cc1cnc(-c2cnn3ccc(-c4ccccc4)nc23)cc1C(=O)N1CCCC[C@@H]1CN` [Example 136, (R)-(2-(aminomethyl)piperidin-1-yl)(5-methyl-2-(5-phenylpyrazolo[1,5-a]pyrimidin-3-yl)pyridin-4-yl)methanone], the IC50 worked out at 0.84 nM.
The value for `COc1cc(C(=O)N2CCCC[C@H]2CN)cc(-c2cnn3ccc(-c4ccccc4)nc23)n1` [Example 134, (S)-(2-(aminomethyl)piperidin-1-yl)(2-methoxy-6-(5-phenylpyrazolo[1,5-a]pyrimidin-3-yl)pyridin-4-yl)methanone] was 303 nM; that for `CN(C)c1cc(C(=O)N2CCCC[C@H]2CN)cc(-c2cnn3ccc(-c4ccccc4)nc23)n1` [Example 135, (S)-(2-(aminomethyl)piperidin-1-yl)(2-(dimethylamino)-6-(5-phenylpyrazolo[1,5-a]pyrimidin-3-yl)pyridin-4-yl)methanone] was 761 nM; that for `CCN(CC)[C@@H](C)CNC(=O)c1cc(NCc2cc[nH]n2)nc(-c2cnn3ccc(-c4cccs4)nc23)c1` [Example 212, (S)-2-(((1H-pyrazol-3-yl)methyl)amino)-N-(2-(diethylamino)propyl)-6-(5-(thiophen-2-yl)pyrazolo[1,5-a]pyrimidin-3-yl)isonicotinamide] was 0.3 nM.
Consider `CCOC1CN(c2cc(C(=O)NC[C@H](C)N(CC)CC)cc(-c3cnn4ccc(-c5cccs5)nc34)n2)C1` [Example 143, (S)—N-(2-(diethylamino)propyl)-2-(3-ethoxyazetidin-1-yl)-6-(5-(thiophen-2-yl)pyrazolo[1,5-a]pyrimidin-3-yl)isonicotinamide], for which the IC50 was found to be 0.17 nM.
For `N[C@H]1CCN(C(=O)c2ccnc(-c3cnn4ccc(-c5ccccc5)nc34)c2)C1` [Example 87, (S)-(3-aminopyrrolidin-1-yl)(2-(5-phenylpyrazolo[1,5-a]pyrimidin-3-yl)pyridin-4-yl)methanone], the IC50 is 45.2 nM.
For the molecule `Cc1cc(C(=O)N2CCCC[C@@H]2CN)cc(-c2cnn3ccc(-c4ccccc4)nc23)n1` [Example 115, (R)-(2-(aminomethyl)piperidin-1-yl)(2-methyl-6-(5-phenylpyrazolo[1,5-a]pyrimidin-3-yl)pyridin-4-yl)methanone], the IC50 turned out to be 1.41 nM.
As to `CCNC(CC)CNC(=O)c1ccnc(-c2cnn3ccc(-c4ccccc4)nc23)c1` (stereo not drawn) [Example 54, N-(2-(ethylamino)butyl)-2-(5-phenylpyrazolo[1,5-a]pyrimidin-3-yl)isonicotinamide], the IC50 was found to be 13.4 nM.
The value for `CCN(CC)[C@@H](C)CNC(=O)c1cc(OCC(C)(C)O)nc(-c2cnn3ccc(-c4cccs4)nc23)c1` [Example 353, (S)—N-(2-(diethylamino)propyl)-2-(2-hydroxy-2-methylpropoxy)-6-(5-(thiophen-2-yl)pyrazolo[1,5-a]pyrimidin-3-yl)isonicotinamide] was 0.1 nM.
The value for `CCN(CC)[C@@H](C)CNC(=O)c1cc(-c2cnn3ccc(-c4cccs4)nc23)nc(N2CCO[C@H](CO)C2)c1` [Example 264, N—((S)-2-(diethylamino)propyl)-2-((S)-2-(hydroxymethyl)morpholino)-6-(5-(thiophen-2-yl)pyrazolo[1,5-a]pyrimidin-3-yl)isonicotinamide] was 0.2 nM.
